Measurements from patent US8546320B2, “Hsp9O-targeted anti-cancer chimeric peptide” (Kyoto University, priority 2008, dated 2013).
Where a SMILES comes first, the peptide text is derived from it.

Experiments:
Caki-1 = type: cell-based, human; details: Caki-1; for Anti-cancer activity (% relative to wild-type peptide) / Decrease in cell survival rate (% relative to wild-type peptide): wild-type peptide = 100%
Description: A total of 3×10^3 cells were inoculated per well on a 96 well plate and cultured in a medium containing 10% FBS for 24 hours, and incubated with 100 μl of a peptide having a gradual increase in concentration at 37° C. for 48 to 72 hours. The survival rate of the cells was measured by using WST-8 solution (Cell Count Reagent SF; Nacalai Tesque, Inc.).
(§1) Respective variant peptides were subjected to cell viability assay. Specifically, Caki-1 (American Type Culture Collection (Manassas, Va.) was inoculated in a total amount of 3×10^3 cells per well on a 96 well plate (Nunc™); the cells were cultured in a medium (DMEM (Tesque, Inc.) containing 10% FBS (fetal bovine serum; Biowest)) for 24 hours and incubated with 100 μl of a peptide having a gradual increase in concentration at 37° C. for 48 to 72 hours. The cell survival rate was measured by using WST-8 solution (Cell Count Reagent SF; Nacalai Tesque, Inc.) and compared with that of the wild-type Antp-TPR peptide.
as §1, with “medium” for “medium (DMEM (Tesque, Inc.)”, “FBS” for “FBS (fetal bovine serum; Biowest))”

cancer cells = assay: Cell viability assay, summary statements on cancer cells; type: cell-based; details: single mutation in TPR or Antp region of Antp-TPR

CC[C@H](C)[C@H](NC(=O)[C@H](CCCNC(=N)N)NC(=O)[C@H](C)NC(=O)[C@H](Cc1ccc(O)cc1)NC(=O)[C@H](C)NC(=O)[C@H](CCCCN)NC(=O)[C@H](CCCCN)NC(=O)[C@H](CCCCN)NC(=O)[C@H](Cc1c[nH]c2ccccc12)NC(=O)[C@H](CCCCN)NC(=O)[C@H](CCSC)NC(=O)[C@H](CCCNC(=N)N)NC(=O)[C@H](CCCCN)NC(=O)[C@H](CC(N)=O)NC(=O)[C@H](CCC(N)=O)NC(=O)[C@H](Cc1ccccc1)NC(=O)[C@H](Cc1c[nH]c2ccccc12)NC(=O)[C@@H](NC(=O)[C@H](CCCCN)NC(=O)[C@@H](NC(=O)[C@H](CCC(N)=O)NC(=O)[C@@H](N)CCCNC(=N)N)[C@@H](C)CC)[C@@H](C)CC)C(=O)NCC(=O)N[C@@H](CC(N)=O)C(=O)N[C@@H](CO)C(=O)N[C@@H](Cc1ccc(O)cc1)C(=O)N[C@@H](Cc1ccccc1)C(=O)N[C@@H](CCCCN)C(=O)O [Antp R10K-TPR] (H-RQIKIWFQNKRMKWKKKAYARIGNSYFK-OH; N-terminus and C-terminus assumed)
killing effect compared with the wild-type peptide (Caki-1): stronger than that of the wild-type peptide
Anti-cancer activity (% relative to wild-type peptide) (Caki-1): 110.30%
Decrease in cell survival rate (% relative to wild-type peptide) (Caki-1): 727.03%
effect compared with the wild-type protein (summary of mutations) (cancer cells): effect similar to that of the wild-type protein

CC[C@H](C)[C@H](NC(=O)[C@H](CCCNC(=N)N)NC(=O)[C@H](C)NC(=O)[C@H](Cc1ccc(O)cc1)NC(=O)[C@H](C)NC(=O)[C@H](CCCCN)NC(=O)[C@H](CCCCN)NC(=O)[C@H](CCCCN)NC(=O)[C@H](Cc1ccc(O)cc1)NC(=O)[C@H](CCCCN)NC(=O)[C@H](CCSC)NC(=O)[C@H](CCCNC(=N)N)NC(=O)[C@H](CCCNC(=N)N)NC(=O)[C@H](CC(N)=O)NC(=O)[C@H](CCC(N)=O)NC(=O)[C@H](Cc1ccccc1)NC(=O)[C@H](Cc1c[nH]c2ccccc12)NC(=O)[C@@H](NC(=O)[C@H](CCCCN)NC(=O)[C@@H](NC(=O)[C@H](CCC(N)=O)NC(=O)[C@@H](N)CCCNC(=N)N)[C@@H](C)CC)[C@@H](C)CC)C(=O)NCC(=O)N[C@@H](CC(N)=O)C(=O)N[C@@H](CO)C(=O)N[C@@H](Cc1ccc(O)cc1)C(=O)N[C@@H](Cc1ccccc1)C(=O)N[C@@H](CCCCN)C(=O)O [Antp W14Y-TPR] (H-RQIKIWFQNRRMKYKKKAYARIGNSYFK-OH; N-terminus and C-terminus assumed)
Anti-cancer activity (% relative to wild-type peptide) (Caki-1): 83.36%
Decrease in cell survival rate (% relative to wild-type peptide) (Caki-1): 41.80%
effect compared with the wild-type protein (summary of mutations) (cancer cells): effect similar to that of the wild-type protein

CC[C@H](C)[C@H](NC(=O)[C@H](CCCNC(=N)N)NC(=O)[C@H](C)NC(=O)[C@H](Cc1ccc(O)cc1)NC(=O)[C@H](C)NC(=O)[C@H](CCCCN)NC(=O)[C@H](CCCCN)NC(=O)[C@H](CCCNC(=N)N)NC(=O)[C@H](Cc1c[nH]c2ccccc12)NC(=O)[C@H](CCCCN)NC(=O)[C@H](CCSC)NC(=O)[C@H](CCCNC(=N)N)NC(=O)[C@H](CCCNC(=N)N)NC(=O)[C@H](CC(N)=O)NC(=O)[C@H](CCC(N)=O)NC(=O)[C@H](Cc1ccccc1)NC(=O)[C@H](Cc1c[nH]c2ccccc12)NC(=O)[C@@H](NC(=O)[C@H](CCCCN)NC(=O)[C@@H](NC(=O)[C@H](CCC(N)=O)NC(=O)[C@@H](N)CCCNC(=N)N)[C@@H](C)CC)[C@@H](C)CC)C(=O)NCC(=O)N[C@@H](CC(N)=O)C(=O)N[C@@H](CO)C(=O)N[C@@H](Cc1ccc(O)cc1)C(=O)N[C@@H](Cc1ccccc1)C(=O)N[C@@H](CCCCN)C(=O)O [Antp K15R-TPR] (H-RQIKIWFQNRRMKWRKKAYARIGNSYFK-OH; N-terminus and C-terminus assumed)
killing effect compared with the wild-type peptide (Caki-1): stronger than that of the wild-type peptide
Anti-cancer activity (% relative to wild-type peptide) (Caki-1): 110.21%
Decrease in cell survival rate (% relative to wild-type peptide) (Caki-1): 687.99%
effect compared with the wild-type protein (summary of mutations) (cancer cells): effect similar to that of the wild-type protein
